According to US12084472B2 (Ardelyx, Inc., priority 2015, dated 2024):

Molecular target: T1, human TGR5 (Homo sapiens, UniProt Q8TDU6)
T1 construct: expressed in transfected cells; host or cells: HEK293
T1 sequence (Q8TDU6 1-330): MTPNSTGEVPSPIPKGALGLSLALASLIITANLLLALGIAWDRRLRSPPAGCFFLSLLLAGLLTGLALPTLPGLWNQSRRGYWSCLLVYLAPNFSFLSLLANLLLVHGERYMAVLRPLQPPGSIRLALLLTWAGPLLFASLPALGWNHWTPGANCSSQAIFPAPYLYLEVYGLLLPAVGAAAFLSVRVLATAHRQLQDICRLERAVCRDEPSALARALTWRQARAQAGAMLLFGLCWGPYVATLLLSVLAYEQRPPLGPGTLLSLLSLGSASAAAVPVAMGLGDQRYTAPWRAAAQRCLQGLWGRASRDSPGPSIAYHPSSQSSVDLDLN
Assay: Cell-based TGR5 assay (cAMP generation, HTRF)
Details: HEK293 cells stably transfected with human TGR5; cAMP by HTRF; 30 minutes at 37° C.; read-out: pEC50 Human TGR5 (converted)
In short: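 First, compounds in 3-fold serial dilution were placed in HBSS with 10 mM HEPES pH 7.4 and 0.5 mM IBMX. Next, human TGR5-expressing HEK293 cells were added and incubated 30 min at 37° C. Finally, cAMP was detected by HTRF and pEC50 derived by logistic fitting.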

SMILES	EC50 [nM]
O=C([C@@H](O)[C@@H](O)[C@H](O)[C@@H](O)CO)N(CCCCO)CCCCSc1ccc(Cl)c(COC2(c3cnccc3-c3ccccc3OC3CC3)CC2)c1 [Compound I-513, (2S,3S,4R,5S)-N-(4-{[4-chloro-3-({1-[4-(2-cyclopropoxyphenyl)pyridin-3-yl]cyclopropoxy}methyl)phenyl]sulfanyl}butyl)-2,3,4,5,6-pentahydroxy-N-(4-hydroxybutyl)hexanamide]	< 100
CC(CCCC(=O)N1CCN(C(=O)NC[C@H](O)[C@@H](O)[C@H](O)[C@H](O)CO)CC1)c1ccc(Cl)c(CNC2(c3cnccc3-c3ccccc3OC3CC3)CC2)c1 (stereo partly drawn) [Compound I-319, 4-(5-{4-chloro-3-[({1-[4-(2-cyclopropoxyphenyl)pyridin-3-yl]cyclopropyl}amino)methyl]phenyl}hexanoyl)-N-[(2S,3R,4R,5R)-2,3,4,5,6-pentahydroxyhexyl]piperazine-1-carboxamide]	< 100
CC(C)(CO)CN(C[C@@H](O)[C@H](O)[C@@H](O)[C@@H](O)CO)C(=O)CCCSc1ccc(Cl)c(COC2(c3cnccc3-c3ccccc3OC3CC3)CC2)c1 [Compound I-687, 4-{[4-chloro-3-({1-[4-(2-cyclopropoxyphenyl)pyridin-3-yl]cyclopropoxy}methyl)phenyl]sulfanyl}-N-(3-hydroxy-2,2-dimethylpropyl)-N-[(2R,3S,4S,5S)-2,3,4,5,6-pentahydroxyhexyl]butanamide]	126 to 1000
O=C([C@@H](O)[C@@H](O)[C@H](O)[C@@H](O)CO)N(CCCCO)CCCCCSc1ccc(Cl)c(CNC2(c3cnccc3-c3ccccc3OC3CC3)CC2)c1 [Compound I-600, (2S,3S,4R,5S)-N-[5-({4-chloro-3-[({1-[4-(2-cyclopropoxyphenyl)pyridin-3-yl]cyclopropyl}amino)methyl]phenyl}sulfanyl)pentyl]-2,3,4,5,6-pentahydroxy-N-(4-hydroxybutyl)hexanamide]	< 100
O=C(NC[C@H](O)[C@@H](O)[C@H](O)[C@H](O)CO)N[C@@H](CCCCNS(=O)(=O)c1ccc(COC2(c3cnccc3-c3ccccc3OC3CC3)CC2)c(Cl)c1)C(=O)O [Compound I-485, (S)-6-(3-chloro-4-((1-(4-(2-cyclopropoxyphenyl)pyridine-3-yl)cyclopropoxy)methyl)phenylsulfonamido)-2-(3-((2S,3R,4R,5R)-2,3,4,5,6-pentahydroxyhexyl)ureido) hexanoic acid]	< 100
COc1cc(C)c(CNC2(c3cnccc3-c3ccccc3OC3CC3)CC2)cc1C(C)C [Compound I-38, 1-[4-(2-cyclopropoxyphenyl)pyridin-3-yl]-N-{[4-methoxy-2-methyl-5-(propan-2-yl)phenyl]methyl}cyclopropan-1-amine]	126 to 1000
COCCN(CCCC(C)c1ccc(C)c(CNC2(c3cnccc3-c3ccccc3OC3CC3)CC2)c1)C(=O)[C@@H](O)[C@@H](O)[C@H](O)[C@@H](O)CO (stereo partly drawn) [Compound I-302, (2S,3S,4R,5S)-N-(4-{3-[({1-[4-(2-cyclopropoxyphenyl)pyridin-3-yl]cyclopropyl}amino)methyl]-4-methylphenyl}pentyl)-2,3,4,5,6-pentahydroxy-N-(2-methoxyethyl)hexanamide]	< 100
CN(CCC(=O)NC[C@H](O)[C@@H](O)[C@H](O)[C@H](O)CO)S(=O)(=O)c1ccc(Cl)c(COC2(c3cnccc3-c3ccccc3OC3CC3)CC2)c1 [Compound I-434, 3-[N-methyl4-chloro-3-({1-[4-(2-cyclopropoxyphenyl)pyridin-3-yl]cyclopropoxy}methyl)benzenesulfonamido]-N-[(2S,3R,4R,5R)-2,3,4,5,6-pentahydroxyhexyl]propanamide]	< 100
CC(CCCN(CCCS(C)(=O)=O)C(=O)[C@@H](O)[C@@H](O)[C@H](O)[C@@H](O)CO)c1ccc(Cl)c(CNC2(c3cnccc3-c3ccccc3OC3CC3)CC2)c1 (stereo partly drawn) [Compound I-292, (2S,3S,4R,5S)-N-(4-{4-chloro-3-[({1-[4-(2-cyclopropoxyphenyl)pyridin-3-yl]cyclopropyl}amino)methyl]phenyl}pentyl)-2,3,4,5,6-pentahydroxy-N-(3-methanesulfonylpropyl)hexanamide]	< 100
CN(C[C@H](O)[C@@H](O)[C@H](O)[C@H](O)CO)C(=O)CCCCSc1ccc(Cl)c(COC2(c3cnccc3-c3ccccc3OC3CC3)CC2)c1 [Compound I-682, 5-{[4-chloro-3-({1-[4-(2-cyclopropoxyphenyl)pyridin-3-yl]cyclopropoxy}methyl)phenyl]sulfanyl}-N-methyl-N-[(2S,3R,4R,5R)-2,3,4,5,6-pentahydroxyhexyl]pentanamide]	< 100
CC(CCCN)c1ccc(Cl)c(CNC2(c3cnccc3-c3ccccc3OC3CC3)CC2)c1 (stereo not shown) [Compound I-252, N-{[5-(5-aminopentan-2-yl)-2-chlorophenyl]methyl}-1-[4-(2-cyclopropoxyphenyl)pyridin-3-yl]cyclopropan-1-amine]	126 to 1000

The next lines start with the values.

EC50 [nM]	SMILES
< 100	CN(CCCSc1ccc(Cl)c(CNC2(c3cnccc3-c3ccccc3OC3CC3)CC2)c1)C(=O)[C@@H](O)[C@@H](O)[C@H](O)[C@@H](O)CO [Compound I-511, (2S,3S,4R,5S)-N-[3-({4-chloro-3-[({1-[4-(2-cyclopropoxyphenyl)pyridin-3-yl]cyclopropyl}amino)methyl]phenyl}sulfanyl)propyl]-2,3,4,5,6-pentahydroxy-N-methylhexanamide]
< 100	Cc1ccc(C)c(CNC2(c3cnccc3-c3ccccc3OC3CC3)CC2)c1 [Compound I-24, 1-[4-(2-cyclopropoxyphenyl)pyridin-3-yl]-N-[(2,5-dimethylphenyl)methyl]cyclopropan-1-amine]
126 to 1000	CN(C)C(=O)CCN(C[C@H](O)[C@@H](O)[C@H](O)[C@H](O)CO)C(=O)CCCSc1ccc(Cl)c(COC2(c3cnccc3-c3ccccc3OC3CC3)CC2)c1 [Compound I-671, 4-{[4-chloro-3-({1-[4-(2-cyclopropoxyphenyl)pyridin-3-yl]cyclopropoxy}methyl)phenyl]sulfanyl}-N-[2-(dimethylcarbamoyl)ethyl]-N-[(2S,3R,4R,5R)-2,3,4,5,6-pentahydroxyhexyl]butanamide]
126 to 1000	CC(C)(CC(=O)O)CC(=O)N(CCCCc1cc(Cl)c(COC2(c3cnccc3-c3ccccc3OC3CC3)CC2)cc1Cl)C[C@H](O)[C@@H](O)[C@H](O)[C@H](O)CO [Compound I-196, 4-({4-[2,5-dichloro-4-({1-[4-(2-cyclopropoxyphenyl)pyridin-3-yl]cyclopropoxy}methyl)phenyl]butyl}[(2S,3R,4R,5R)-2,3,4,5,6-pentahydroxyhexyl]carbamoyl)-3,3-dimethylbutanoic acid]
< 100	O=C([C@@H](O)[C@@H](O)[C@H](O)[C@@H](O)CO)N(CCCCSc1ccc(Cl)c(COC2(c3cnccc3-c3ccccc3OC3CC3)CC2)c1)CCOCCO [Compound I-512, (2S,3S,4R,5S)-N-(4-{[4-chloro-3-({1-[4-(2-cyclopropoxyphenyl)pyridin-3-yl]cyclopropoxy}methyl)phenyl]sulfanyl}butyl)-2,3,4,5,6-pentahydroxy-N-[2-(2-hydroxyethoxy)ethyl]hexanamide]
< 100	O=C(NCCCCCSc1ccc(Cl)c(COC2(c3cnccc3-c3ccccc3OC3CC3)CC2)c1)N[C@@H](CO)[C@@H](O)[C@H](O)[C@H](O)CO [Compound I-636, 1-(5-{[4-chloro-3-({1-[4-(2-cyclopropoxyphenyl)pyridin-3-yl]cyclopropoxy}methyl)phenyl]sulfanyl}pentyl)-3-[(2S,3R,4S,5R)-1,3,4,5,6-pentahydroxyhexan-2-yl]urea]
126 to 1000	O=C([C@@H](O)[C@@H](O)[C@H](O)[C@@H](O)CO)N(CCCCSc1ccc(Cl)c(CNC2(c3cnccc3-c3ccccc3OC3CC3)CC2)c1)CC1CCOCC1 [Compound I-536, (2S,3S,4R,5S)-N-[4-({4-chloro-3-[({1-[4-(2-cyclopropoxyphenyl)pyridin-3-yl]cyclopropyl}amino)methyl]phenyl}sulfanyl)butyl]-2,3,4,5,6-pentahydroxy-N-(oxan-4-ylmethyl)hexanamide]
< 100	CCN(CCCCNC(=O)N[C@@H](CO)[C@@H](O)[C@H](O)[C@H](O)CO)S(=O)(=O)c1ccc(Cl)c(COC2(c3cnccc3-c3ccccc3OC3CC3)CC2)c1 [Compound I-465, 1-{4-[N-ethyl4-chloro-3-({1-[4-(2-cyclopropoxyphenyl)pyridin-3-yl]cyclopropoxy}methyl)benzenesulfonamido]butyl}-3-[(2S,3R,4S,5R)-1,3,4,5,6-pentahydroxyhexan-2-yl]urea]
126 to 1000	CC(CCCC(=O)N(CCN(C)C)C[C@H](O)[C@@H](O)[C@H](O)[C@H](O)CO)c1ccc(Cl)c(CNC2(c3cnccc3-c3ccccc3OC3CC3)CC2)c1 (stereo partly drawn) [Compound I-337, 5-{4-chloro-3-[({1-[4-(2-cyclopropoxyphenyl)pyridin-3-yl]cyclopropyl}amino)methyl]phenyl}-N-[^2-(dimethylamino)ethyl]-N-[(2S,3R,4R,5R)-2,3,4,5,6-pentahydroxyhexyl]hexanamide]
< 100	O=C(NCCCCN(CCO)S(=O)(=O)c1ccc(Cl)c(COC2(c3cnccc3-c3ccccc3OC3CC3)CC2)c1)NC[C@H](O)[C@@H](O)[C@H](O)[C@H](O)CO [Compound I-414, 1-{4-[N-(2-hydroxyethyl)4-chloro-3-({1-[4-(2-cyclopropoxyphenyl)pyridin-3-yl]cyclopropoxy}methyl)benzenesulfonamido]butyl}-3-[(2S,3R,4R,5R)-2,3,4,5,6-pentahydroxyhexyl]urea]
< 100	Cc1ccc(C(C)CCCC(=O)O)cc1CNC1(c2cnccc2-c2ccccc2OC2CC2)CC1 (single isomer, unassigned) [Compound I-253]
